Measured values from patent US20150352108A1, “AMINO-PYRIMIDINE COMPOUNDS AS INHIBITORS OF TBK1 AND/OR IKK EPSILON” (Alzheimer's Institute of America, priority 2009, published 2015).
Like-named read-outs stand apart in the source and are kept apart here.

Legend:
TBK1 = biological target: T1, TBK1 (Homo sapiens, UniProt Q9UHD2); assay: In-vitro TBK1 kinase assay ([γ33]ATP filter-plate); type: biochemical
T1 construct: His-tag; made in house; host or cells: Sf9 insect cells
T1 sequence (Q9UHD2 1-729): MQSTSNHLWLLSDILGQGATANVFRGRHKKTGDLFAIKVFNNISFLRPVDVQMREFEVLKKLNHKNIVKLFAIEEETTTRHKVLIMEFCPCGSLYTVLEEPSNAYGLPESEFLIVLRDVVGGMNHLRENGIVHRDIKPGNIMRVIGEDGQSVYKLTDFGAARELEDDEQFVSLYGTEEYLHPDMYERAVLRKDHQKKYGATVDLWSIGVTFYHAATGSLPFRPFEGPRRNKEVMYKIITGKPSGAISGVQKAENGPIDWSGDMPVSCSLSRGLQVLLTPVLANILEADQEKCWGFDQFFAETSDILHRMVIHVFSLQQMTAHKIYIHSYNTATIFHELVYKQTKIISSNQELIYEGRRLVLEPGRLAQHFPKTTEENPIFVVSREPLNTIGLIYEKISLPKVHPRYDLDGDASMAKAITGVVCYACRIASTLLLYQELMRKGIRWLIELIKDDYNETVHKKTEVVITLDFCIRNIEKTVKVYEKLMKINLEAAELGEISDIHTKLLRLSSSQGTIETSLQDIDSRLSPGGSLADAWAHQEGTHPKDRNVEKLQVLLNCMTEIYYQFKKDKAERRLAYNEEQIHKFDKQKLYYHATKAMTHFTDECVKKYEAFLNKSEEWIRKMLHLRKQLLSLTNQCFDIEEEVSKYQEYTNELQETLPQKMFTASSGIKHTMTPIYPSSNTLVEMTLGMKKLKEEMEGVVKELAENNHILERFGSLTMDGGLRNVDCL
How it was run: (§1)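 Phosphorylation of casein or myelin basic protein was counted by P-81 filter capture after 30-45 min reactions stopped with phosphoric acid, with counts normalized to DMSO after background subtraction. ATP was twice Km: 60 μM for TBK1 and 32 μM for IKKε, plus [γ33]ATP. Sf9-expressed His-tag enzymes were used at normal/sensitized levels of 0.1/0.02 μg/ml (TBK1) and 0.1/0.015 μg/ml (IKKε).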

IKKε = biological target: T2, IKKε (Homo sapiens, UniProt Q14164); assay: In-vitro IKKε kinase assay ([γ33]ATP filter-plate); type: biochemical
T2 construct: His-tag; made in house; host or cells: Sf9 insect cells
T2 sequence (Q14164 1-716): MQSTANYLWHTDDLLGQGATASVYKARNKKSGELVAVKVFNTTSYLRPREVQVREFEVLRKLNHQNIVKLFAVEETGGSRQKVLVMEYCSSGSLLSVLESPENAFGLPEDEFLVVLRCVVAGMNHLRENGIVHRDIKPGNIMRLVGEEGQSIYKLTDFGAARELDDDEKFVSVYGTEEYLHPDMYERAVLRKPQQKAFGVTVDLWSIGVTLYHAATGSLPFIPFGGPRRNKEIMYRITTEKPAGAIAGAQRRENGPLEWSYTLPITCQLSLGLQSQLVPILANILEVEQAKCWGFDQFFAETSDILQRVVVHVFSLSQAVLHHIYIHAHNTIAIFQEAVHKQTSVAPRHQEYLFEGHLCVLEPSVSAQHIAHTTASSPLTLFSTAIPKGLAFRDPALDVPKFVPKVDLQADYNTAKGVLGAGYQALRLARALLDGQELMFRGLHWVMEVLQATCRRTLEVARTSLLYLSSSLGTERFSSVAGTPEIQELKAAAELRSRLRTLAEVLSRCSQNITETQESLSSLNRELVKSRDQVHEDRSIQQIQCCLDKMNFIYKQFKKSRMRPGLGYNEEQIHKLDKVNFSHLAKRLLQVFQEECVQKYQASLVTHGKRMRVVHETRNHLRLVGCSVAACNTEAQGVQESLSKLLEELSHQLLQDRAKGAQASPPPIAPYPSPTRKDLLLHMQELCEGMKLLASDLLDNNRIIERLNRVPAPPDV
How it was run: as §1

[1] = text bins, read-out: IC50 for inhibition of the kinase activity of TBK1
[2] = text bins, read-out: IC50 for inhibition of the kinase activity of IKKε

Structure (SMILES) | IC50 (TBK1; [1]) [nM] | IC50 (IKKε; [2]) [nM] | IC50 (TBK1; Table 3, read-out: TBK1 IC50) [nM] | IC50 (IKKε; Table 3, read-out: IKKε IC50) [nM]
Cc1ccc(Nc2nccc(-c3ccc(NC(=O)C(C)C)c(C#N)c3)n2)cc1OCCCN1CCOCC1 [compound 410] | 10 to 100 | 5 to 50 | – | –
COc1cc(NC(=O)N2CC[C@H](O)C2)cc(Nc2nccc(-c3ccc(OC)c(C#N)c3)n2)c1 [compound 294, (3S)-N-(3-{[4-(3-Cyano-4-methoxyphenyl)pyrimidin-2-yl]amino}-5-methoxyphenyl)-3-hydroxypyrrolidine-1-carboxamide] | 10 to 100 | 5 to 50 | – | –
COc1cc(-c2ccnc(Nc3ccc(CN4CCN(CCO)CC4)cc3)n2)cc(C#N)c1OC1CCOCC1 [compound 443] | 10 to 100 | 5 to 50 | – | –
CN(C)CC(=O)Nc1ccc(Nc2nccc(-c3cccc(C#N)c3)n2)cc1 [Example 183] | 10 to 100 | 50 to 500 | – | –
COc1ccc(-c2ccnc(Nc3ccc(CN4CCOCC4)cc3)n2)cc1C#N [Example 251, 2-Methoxy-5-(2-{[4-(morpholin-4-ylmethyl)phenyl]amino}pyrimidin-4-yl)benzonitrile] | 10 to 100 | 5 to 50 | – | –
N#Cc1cc(-c2ccnc(Nc3ccc(N4CCOCC4)cc3)n2)ccc1OCc1ccccc1 [Example 179, 2-(Benzyloxy)-5-(2-{[4-(morpholin-4-yl)phenyl]amino}pyrimidin-4-yl)benzonitrile] | 10 to 100 | 5 to 50 | – | –
N#Cc1cccc(-c2ccnc(Nc3ccc(N4CCOCC4)cc3)n2)c1 [compound 322, 3-(2-{[4-(Morpholin-4-yl)phenyl]amino}pyrimidin-4-yl)benzonitrile] | 10 to 100 | 50 to 500 | – | –
N#Cc1cccc(-c2ccnc(Nc3cccc(NC(=O)NC4CCCC4)c3)n2)c1 [Example 201, 1-(3-{[4-(3-Cyanophenyl)pyrimidin-2-yl]amino}phenyl)-3-cyclopentylurea] | 10 to 100 | 5 to 50 | – | –
N#Cc1cc(-c2ccnc(Nc3cccc(CS(=O)(=O)NCCO)c3)n2)ccc1OCC1CC1 [compound 611, 1-[3-({4-[3-Cyano-4-(cyclopropylmethoxy)phenyl]pyrimidin-2-yl}amino)phenyl]-N-(2-hydroxyethyl) methanesulfonamide] | < 10 | < 5 | 0.6 | 1.5
N#Cc1cc(-c2ccnc(Nc3ccc(N4CCOCC4)cc3)n2)ccc1OCC1CCN(C(=O)CO)C1 (stereo not shown) [compound 461, 2-{[1-(hydroxyacetyl)pyrrolidin-3-yl]methoxy}-5-(2-{[4-(morpholin-4-yl)phenyl]amino}pyrimidin-4-yl)benzonitrile] | < 10 | 5 to 50 | – | –
N#Cc1cc(-c2ccnc(Nc3ccc(N4CCOCC4)cc3)n2)ccc1OCCCO [Example 210, 2-(3-Hydroxypropoxy)-5-(2-{[4-(morpholin-4-yl)phenyl]amino}pyrimidin-4-yl)benzonitrile] | < 10 | < 5 | – | –
N#Cc1cc(-c2ccnc(Nc3ccc(N4CCOCC4)cc3)n2)ccc1NC(=O)C1CC1 [Example 91, N-[2-cyano-4-(2-{[4-(morpholin-4-yl)phenyl]amino}pyrimidin-4-yl)phenyl] cyclopropane-carboxamide] | < 10 | < 5 | – | –
N#Cc1cc(-c2ccnc(Nc3ccc(N)cc3)n2)ccc1OC1CCOCC1 [Example 184, 5-{2-[(4-Aminophenyl)amino]pyrimidin-4-yl}-2-(tetrahydro-2H-pyran-4-yloxy)benzonitrile] | < 10 | < 5 | – | –

Other lines, results leading:

IC50 (TBK1; [1]) [nM] | IC50 (IKKε; [2]) [nM] | IC50 (TBK1; Table 3, read-out: TBK1 IC50) [nM] | IC50 (IKKε; Table 3, read-out: IKKε IC50) [nM] | Structure (SMILES)
< 10 | 5 to 50 | – | – | N#Cc1cc(-c2ccnc(Nc3ccc(N4CCOCC4)cc3)n2)ccc1OC1CCN(C=O)C1 (stereo not shown) [Example 187, 2-[(1-formylpyrrolidin-3-yl)oxy]-5-(2-{[4-(morpholin-4-yl)phenyl]amino}pyrimidin-4-yl)benzonitrile]
< 10 | 5 to 50 | – | – | CC(=O)N1CCN(C(=O)Nc2ccc(Nc3nccc(-c4ccc(OC5CCOCC5)c(C#N)c4)n3)cc2)CC1 [Example 19, 4-acetyl-N-[4-({4-[3-cyano-4-(tetrahydro-2H-pyran-4-yloxy)phenyl]pyrimidin-2-yl}amino)phenyl] piperazine-1-carboxamide]
< 10 | < 5 | – | – | N#Cc1cc(-c2ccnc(Nc3ccc(NC(=O)Nc4cccnc4)cc3)n2)ccc1OC1CCOCC1 [Example 14, 1-[4-({4-[3-cyano-4-(tetrahydro-2H-pyran-4-yloxy)phenyl]pyrimidin-2-yl}amino)phenyl]-3-pyridin-3-ylurea]
< 10 | < 5 | – | – | COc1cc(Nc2nccc(-c3ccc(OC4CCOCC4)c(C#N)c3)n2)ccc1S(=O)(=O)NCCCO [Example 155, 4-({4-[3-cyano-4-(tetrahydro-2H-pyran-4-yloxy)phenyl]pyrimidin-2-yl}amino)-N-(3-hydroxypropyl)-2-methoxybenzene-sulfonamide]
< 10 | 5 to 50 | – | – | COc1ccc(-c2ccnc(Nc3ccc(N4CCOCC4)cc3)n2)cc1C#N [Example 266, 2-Methoxy-5-(2-{[4-(morpholin-4-yl)phenyl]amino}pyrimidin-4-yl)benzonitrile]
< 10 | 5 to 50 | – | – | N#Cc1cc(-c2ccnc(Nc3cccc(CC(=O)NCCCN4CCOCC4)c3)n2)ccc1OC1CCOCC1 [compound 407, 2-[3-({4-[3-Cyano-4-(tetrahydro-2H-pyran-4-yloxy)phenyl]pyrimidin-2-yl}amino)phenyl]-N-[3-(morpholin-4-yl)propyl]acetamide]
< 10 | 5 to 50 | – | – | N#Cc1cc(-c2ccnc(Nc3ccc(N4CCOCC4)cc3)n2)ccc1OCCNC=O [Example 230, N-{2-[2-cyano-4-(2-{[4-(morpholin-4-yl)phenyl]amino}pyrimidin-4-yl)phenoxy]ethyl} formamide]
< 10 | < 5 | – | – | C[C@H](O)C(=O)N1CCC(Oc2ccc(-c3ccnc(Nc4ccc(C(=O)N(C)CCN(C)C)cc4)n3)cc2C#N)CC1 [compound 331, 4-({4-[3-cyano-4-({1-[(2S)-2-hydroxypropanoyl]piperidin-4-yl}oxy)phenyl]pyrimidin-2-yl}amino)-N-[2-(dimethylamino)ethyl]-N-methylbenzamide]
< 10 | < 5 | – | – | COc1ccc(-c2ccnc(Nc3ccc(N4CCNC(=O)C4)c(OC)c3)n2)cc1C#N [compound 370, 2-Methoxy-5-(2-{[3-methoxy-4-(3-oxopiperazin-1-yl)phenyl]amino}pyrimidin-4-yl)benzonitrile]
< 10 | 5 to 50 | – | – | CC1(C)CC1C(=O)Nc1ccc(-c2ccnc(Nc3ccc(N4CCOCC4)cc3)n2)cc1C#N (stereo not shown) [compound 554, N-[2-Cyano-4-(2-{[4-(morpholin-4-yl)phenyl]amino}pyrimidin-4-yl)phenyl]-2,2-dimethylcyclopropane-carboxamide]
< 10 | 5 to 50 | – | – | COc1ccc(-c2ccnc(Nc3ccc(N4CCC(N5CCN(C)CC5)CC4)c(OC)c3)n2)cc1C#N [Example 65, 2-Methoxy-5-[2-({3-methoxy-4-[4-(4-methylpiperazin-1-yl)piperidin-1-yl]phenyl}amino)pyrimidin-4-yl]benzonitrile]
< 10 | 5 to 50 | – | – | C[C@H](O)C(=O)N1CCC(Oc2ccc(-c3ccnc(Nc4ccc(CN5CCOCC5)cc4)n3)cc2C#N)CC1 [compound 509, 2-({1-[(2S)-2-hydroxypropanoyl]piperidin-4-yl}oxy)-5-(2-{[4-(morpholin-4-ylmethyl)phenyl]amino}pyrimidin-4-yl)benzonitrile]
